We go through 2 compounds from patent US7960435B2, “Anti-cancer agents and androgen inhibition activity compound” (University of Maryland, Baltimore, priority 2006, dated 2011).

The test system of data set [1] is AR-mediated transcription (LNCaP-AR). The data set can be described thus: Luciferase transactivation assay in LNCaP cells transfected with ARR2-Luc. Type of data set: cell-based, human. The conditions noted are these: for effect on luciferase activity, compound alone: without DHT. As for the experimental part:
FIG. 12. […] Cells in steroid-free medium were treated with vehicle, or increasing concentrations of either 9 or 11 with and without 5 nM DHT for 18 h. Cells were then assayed for luciferase activity using a know assay.^10
To determine if the compounds act as AR agonists or antagonists, androgen regulated transcriptional activation studies were performed in LNCaP cells transiently transfected with the probasin luciferase reported construct ARR2-Luc.
(§1) These assays were performed as previously described.^10

The next data set has as its target T1, mutated AR (Homo sapiens, UniProt P10275, T878A).
T1 construct: we utilized the LNCaP cell line which contains a mutant AR; host or cells: LNCaP
T1 sequence (P10275 1-920 T878A): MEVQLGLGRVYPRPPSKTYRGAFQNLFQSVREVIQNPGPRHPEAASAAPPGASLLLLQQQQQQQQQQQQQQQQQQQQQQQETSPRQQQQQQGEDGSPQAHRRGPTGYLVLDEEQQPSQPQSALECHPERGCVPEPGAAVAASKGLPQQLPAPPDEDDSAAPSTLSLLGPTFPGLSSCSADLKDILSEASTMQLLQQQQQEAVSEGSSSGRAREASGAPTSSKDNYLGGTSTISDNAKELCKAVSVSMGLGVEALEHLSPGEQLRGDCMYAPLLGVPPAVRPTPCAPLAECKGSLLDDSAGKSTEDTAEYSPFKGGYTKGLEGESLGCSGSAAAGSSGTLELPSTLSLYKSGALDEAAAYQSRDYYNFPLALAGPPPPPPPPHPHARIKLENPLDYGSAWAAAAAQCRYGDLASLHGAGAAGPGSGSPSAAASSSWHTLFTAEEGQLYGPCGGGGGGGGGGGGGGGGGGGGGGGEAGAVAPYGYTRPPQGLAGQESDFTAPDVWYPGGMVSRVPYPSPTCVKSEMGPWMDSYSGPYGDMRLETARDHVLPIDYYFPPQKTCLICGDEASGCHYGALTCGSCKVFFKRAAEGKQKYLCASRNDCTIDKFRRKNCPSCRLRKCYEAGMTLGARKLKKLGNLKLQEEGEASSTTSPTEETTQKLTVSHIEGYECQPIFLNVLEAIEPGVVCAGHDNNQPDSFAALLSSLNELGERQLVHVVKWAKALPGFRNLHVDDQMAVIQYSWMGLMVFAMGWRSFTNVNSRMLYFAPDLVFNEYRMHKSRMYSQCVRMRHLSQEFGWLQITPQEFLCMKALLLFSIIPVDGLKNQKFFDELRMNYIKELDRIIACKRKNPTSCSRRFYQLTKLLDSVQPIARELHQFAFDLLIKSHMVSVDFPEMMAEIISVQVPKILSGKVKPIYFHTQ
The data set can be described thus: Competitive androgen receptor binding with [3H]-R1881 in LNCaP cells. On the procedure: (§2) In both cell lines, compounds 9 and 11 were able to effectively compete with labeled R1881 in a dose-dependent fashion (FIG. 11). In PC-3-AR cells compound II reduced [^3H]-R1881 binding by 65% and 80% at 10 μM and 20 μM, respectively. […] Compound 9 reduced [^3H]-R1881 binding by 50% and 65% at 10 μM and 20 μM, respectively, and was equipotent in both cell lines.
as §1

A further data set has as its target T2, wild-type AR (Homo sapiens, UniProt P10275).
T2 construct: expressed in transfected cells; host or cells: PC-3 (stably transfected, PC-3-AR)
T2 sequence (P10275 1-920): T1 sequence (P10275 1-920 T878A) with A878T
The data set can be described thus: Competitive androgen receptor binding with [3H]-R1881 in PC-3-AR cells. The conditions noted are these: PC-3-AR cells. As for the experimental part: as §2, §1

For another data set, the system named is PC-3 cells. The data set can be described thus: Cell growth inhibition (MTT assay), PC-3. The conditions noted are these: Homo sapiens, PC-3 (AR null), means of three experiments, called IC50, read-out: Cytotoxicity GI50 (nM) PC-3. Type of data set: cell-based, human. The source says: (§3) Lead optimization of BTB01434 and further biological studies: BTB01434 (Maybridge) was used as a lead molecule to synthesize new molecules. Although this compound was not as potent as some of the others (cf. Table 4), it was chosen for its ease of modification. New compounds (6-23) were developed using the diaryl sulfonamide compound BTB01434 (FIG. 6) as a scaffold. […] Including new BTB01434 analogs, including diaryl sulfonamide analogs bearing various substituents on the phenyl rings (series A), aryl amide analogs (series B), and amine analogs (series C). These new compounds were evaluated for cell growth inhibition in two human prostate cancer cell lines, (LNCaP and PC-3) by MTT assay. Based on the structures and anti-prostate cancer activities of the new compounds, a structure-activity relationship (SAR) was formulated.
Inhibition of prostate cancer cell proliferation and SAR: The exemplary compounds were then tested for their ability to inhibit cell viability in both the LNCaP (mutant AR) and PC-3 (AR null) cell lines (Table 5).
(§4) LNCaP cells were seeded in 24 well plates (Corning Costar) at a density of 2×10^4 cells per well per 1 mL of medium. Cell were allowed to adhere to the plate for 24 hours and then treated with different concentrations of ARDAs dissolved in DMSO. Cells were treated for five days with renewal of ARDA and media on day 3. On the fifth day, medium was renewed and 100 μL of MTT (3-(4,5-dimethylthiazol-2-yl)-2,5-diphenyl-2H-tetrazolium bromide from Sigma) solution (0.5 mg MTT/mL of medium) was added to the medium such that the ratio of MTT:medium was 1:10. The cells were incubated with MTT for 2 hours. The medium was then aspirated and 500 μL of DMSO was added to solubilize the violet MTT-formazan product. The absorbance at 560 nm was measured by spectrophotometry (Victor 1420 multilabel counted, Wallac). For each concentration of ARDA there were triplicate wells in each independent experiment. IC50 values were calculated by nonlinear regression analysis using GraphPad Prism software.
On the technique in general: Tetrazolium assays rely on reduction of a dye to a coloured formazan, in cell work by metabolically active cells.

Another data set deals with LNCaP cells. The data set can be described thus: Cell growth inhibition (MTT colorimetric assay), LNCaP. The class given is cell-based, human. The conditions noted are these: for GI50: LNCaP (mutant AR), MTT, means of three experiments, called IC50, read-out: Cytotoxicity GI50 (nM) LNCaP.
Source text: as §3
Androgen-dependent LNCaP cells were obtained from American Type Culture Collection (Rockville, Md., USA). Cells were maintained in RPMI 1640 medium supplemented with 10% fetal bovine serum (Atlanta Biologicals, Lawrenceville, Ga., USA) and 1% penicillin/streptomycin. Cells were grown as a monolayer in T75 or T150 tissue culture flasks in a humidified incubator (5% CO2, 95% air) at 37° C.
as §4

Residue numbers refer to the chain shown, from its start. Where two headings read alike, the source gives them in different places.

A word on the GI50: it is the concentration at which growth is held to half of that of the control. Regarding `Cc1ccc(NS(=O)(=O)c2ccc(F)cc2)c([N+](=O)[O-])c1` [Compound 9, [(4-Fluorophenyl)sulfonyl](4-methyl-2-nitrophenyl)amine], the “effect on luciferase activity, compound alone” value in data set [1] (0.1 μM) was “slight increase”; in data set [1] (10 μM), “did not increase”. Further, in data set [1] (10 μM, with 5 nM DHT), the “reduction of luciferase expression in the presence of DHT” value is given as 50%. Also, the “reduction of [3H]-R1881 binding” value on mutated AR (10 μM) is 50%; at mutated AR (20 μM), 65%; on wild-type AR (10 μM), 50%; at wild-type AR (20 μM) it was 65%. Also, the GI50 in the data set on PC-3 cells turned out to be 850 nM; in the data set on LNCaP cells (Homo sapiens, LNCaP), 2.34 nM.
The melting point is the temperature of the solid-liquid transition. Take `O=[N+]([O-])c1ccccc1NS(=O)(=O)c1ccccc1` [Compound 7, (2-Nitrophenyl)(phenylsulfonyl)amine]: the melting point came to 102 °C. Moreover, the concentration for 50% growth inhibition (GI50) with PC-3 cells came out at 22900 nM. Moreover, the GI50 in the data set on LNCaP cells (Homo sapiens, LNCaP) amounted to 14.8 nM. For the same compound, in the data set with LNCaP cells, the GI50 was determined as 14.1 nM. In the data set on LNCaP cells (LNCaP cells), the “fold less potent than compound 8 (GI50)” value was 5 fold and the “fold more potent than compound 6 (GI50)” value was found to be 5.6 fold.
